Experimental data taken from ChEMBL document CHEMBL1201862, “PubChem BioAssay data set” (2004).
Calls of active or inactive are those of the source.

Columns and labels:
Coagulation factor XII = Coagulation factor XII (Homo sapiens, UniProt P00748); experiment: Factor XIIa Dose Response Confirmation from Single Well HTS. [Related pubchem assays (depositor defined):AID701]; type: functional
[1] = molecular target: Heat shock protein HSP 90-alpha (Homo sapiens, UniProt P07900); type: functional, organism-based
HEK293 [2] = experiment: cells; type: functional, cell-based; details: Homo sapiens
HEK293 [3] = experiment: cells; type: functional, cell-based; details: Homo sapiens; remark: listed apart in the source
HEK293 [4] = experiment: cells; type: functional, cell-based; details: Homo sapiens; remark: listed apart in the source
HEK293 [5] = experiment: NOD1 signaling inhibitors, primary screen, cell-based, luminescence, uHTS (AID 1578); type: functional; details: Homo sapiens
[6] = molecular target: T1, Nucleotide-binding oligomerization domain-containing protein 1 (Homo sapiens, UniProt Q9Y239); experiment: NOD1 signaling inhibitors, SAR follow-up, revised (AID 2333); type: functional
T1 sequence (Q9Y239 whole entry): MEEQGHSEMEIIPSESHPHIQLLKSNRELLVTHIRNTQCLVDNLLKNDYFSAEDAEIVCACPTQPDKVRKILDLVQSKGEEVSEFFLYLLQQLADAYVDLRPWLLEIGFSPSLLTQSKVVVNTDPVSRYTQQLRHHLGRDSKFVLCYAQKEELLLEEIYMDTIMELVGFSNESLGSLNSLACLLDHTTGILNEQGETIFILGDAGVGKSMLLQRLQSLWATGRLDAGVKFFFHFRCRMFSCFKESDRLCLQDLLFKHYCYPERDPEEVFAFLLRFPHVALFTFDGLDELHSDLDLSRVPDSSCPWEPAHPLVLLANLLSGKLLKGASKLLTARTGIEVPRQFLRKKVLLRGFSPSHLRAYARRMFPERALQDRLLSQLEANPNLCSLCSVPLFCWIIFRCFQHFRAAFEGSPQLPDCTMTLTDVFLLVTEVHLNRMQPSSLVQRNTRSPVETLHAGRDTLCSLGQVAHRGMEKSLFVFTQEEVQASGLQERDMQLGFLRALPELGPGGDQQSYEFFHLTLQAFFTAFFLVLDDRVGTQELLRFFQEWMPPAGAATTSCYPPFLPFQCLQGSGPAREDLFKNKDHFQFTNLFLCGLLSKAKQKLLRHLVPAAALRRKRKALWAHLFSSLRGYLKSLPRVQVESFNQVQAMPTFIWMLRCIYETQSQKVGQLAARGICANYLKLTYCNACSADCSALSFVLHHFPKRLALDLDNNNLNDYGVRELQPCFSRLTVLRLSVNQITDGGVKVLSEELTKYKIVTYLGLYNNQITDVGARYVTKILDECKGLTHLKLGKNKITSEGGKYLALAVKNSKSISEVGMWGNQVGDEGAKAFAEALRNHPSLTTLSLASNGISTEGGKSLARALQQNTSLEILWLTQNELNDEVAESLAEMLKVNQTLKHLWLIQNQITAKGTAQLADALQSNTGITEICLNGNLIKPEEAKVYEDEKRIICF

[7] = THP-1 cell cytotoxicity, dose response, cytotoxicity control for Vif-APOBEC3G degradation inhibitor project, THP-1 cells (AID 1117359); type: functional; details: Human immunodeficiency virus 1, THP-1
[8] = molecular target: T2, Nucleotide-binding oligomerization domain-containing protein 2 (Homo sapiens, UniProt Q9HC29); experiment: PubChem AID 2334; type: functional
T2 sequence (Q9HC29 whole entry, the tested form may be a part): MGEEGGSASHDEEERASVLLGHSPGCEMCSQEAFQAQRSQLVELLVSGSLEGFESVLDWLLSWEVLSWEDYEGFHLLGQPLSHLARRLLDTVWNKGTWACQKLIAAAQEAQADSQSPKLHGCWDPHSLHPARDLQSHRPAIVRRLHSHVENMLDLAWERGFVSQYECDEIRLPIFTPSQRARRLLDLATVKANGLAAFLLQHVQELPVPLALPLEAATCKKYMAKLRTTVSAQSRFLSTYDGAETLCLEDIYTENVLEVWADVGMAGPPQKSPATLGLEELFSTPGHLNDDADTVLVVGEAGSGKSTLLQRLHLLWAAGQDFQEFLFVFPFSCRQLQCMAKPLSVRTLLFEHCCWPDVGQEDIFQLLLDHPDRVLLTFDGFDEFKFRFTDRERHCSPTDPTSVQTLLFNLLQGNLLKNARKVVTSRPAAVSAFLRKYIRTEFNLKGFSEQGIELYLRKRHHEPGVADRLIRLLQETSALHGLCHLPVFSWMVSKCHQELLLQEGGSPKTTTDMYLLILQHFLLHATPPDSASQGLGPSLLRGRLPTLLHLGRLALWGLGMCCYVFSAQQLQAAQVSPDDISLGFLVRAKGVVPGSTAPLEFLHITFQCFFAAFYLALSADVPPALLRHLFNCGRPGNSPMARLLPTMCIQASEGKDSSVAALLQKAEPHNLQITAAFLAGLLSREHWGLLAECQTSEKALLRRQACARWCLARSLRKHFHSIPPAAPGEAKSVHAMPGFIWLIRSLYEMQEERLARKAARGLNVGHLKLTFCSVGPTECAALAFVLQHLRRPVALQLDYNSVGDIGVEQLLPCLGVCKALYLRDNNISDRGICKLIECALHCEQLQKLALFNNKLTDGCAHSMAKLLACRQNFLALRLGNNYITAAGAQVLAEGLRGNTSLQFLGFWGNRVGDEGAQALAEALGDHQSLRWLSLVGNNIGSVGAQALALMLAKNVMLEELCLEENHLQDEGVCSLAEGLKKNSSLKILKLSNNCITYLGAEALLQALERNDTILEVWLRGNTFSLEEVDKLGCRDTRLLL

Beta-galactosidase = Beta-galactosidase (Escherichia coli, UniProt Q8VNN2); experiment: beta-galactosidase enzyme inhibitors and activators, dose response, artefact control for CCR6 antagonist project, biochemical, E. coli enzyme, set 3 (AID 504712); type: functional
Chain of Beta-galactosidase (Q8VNN2 whole entry): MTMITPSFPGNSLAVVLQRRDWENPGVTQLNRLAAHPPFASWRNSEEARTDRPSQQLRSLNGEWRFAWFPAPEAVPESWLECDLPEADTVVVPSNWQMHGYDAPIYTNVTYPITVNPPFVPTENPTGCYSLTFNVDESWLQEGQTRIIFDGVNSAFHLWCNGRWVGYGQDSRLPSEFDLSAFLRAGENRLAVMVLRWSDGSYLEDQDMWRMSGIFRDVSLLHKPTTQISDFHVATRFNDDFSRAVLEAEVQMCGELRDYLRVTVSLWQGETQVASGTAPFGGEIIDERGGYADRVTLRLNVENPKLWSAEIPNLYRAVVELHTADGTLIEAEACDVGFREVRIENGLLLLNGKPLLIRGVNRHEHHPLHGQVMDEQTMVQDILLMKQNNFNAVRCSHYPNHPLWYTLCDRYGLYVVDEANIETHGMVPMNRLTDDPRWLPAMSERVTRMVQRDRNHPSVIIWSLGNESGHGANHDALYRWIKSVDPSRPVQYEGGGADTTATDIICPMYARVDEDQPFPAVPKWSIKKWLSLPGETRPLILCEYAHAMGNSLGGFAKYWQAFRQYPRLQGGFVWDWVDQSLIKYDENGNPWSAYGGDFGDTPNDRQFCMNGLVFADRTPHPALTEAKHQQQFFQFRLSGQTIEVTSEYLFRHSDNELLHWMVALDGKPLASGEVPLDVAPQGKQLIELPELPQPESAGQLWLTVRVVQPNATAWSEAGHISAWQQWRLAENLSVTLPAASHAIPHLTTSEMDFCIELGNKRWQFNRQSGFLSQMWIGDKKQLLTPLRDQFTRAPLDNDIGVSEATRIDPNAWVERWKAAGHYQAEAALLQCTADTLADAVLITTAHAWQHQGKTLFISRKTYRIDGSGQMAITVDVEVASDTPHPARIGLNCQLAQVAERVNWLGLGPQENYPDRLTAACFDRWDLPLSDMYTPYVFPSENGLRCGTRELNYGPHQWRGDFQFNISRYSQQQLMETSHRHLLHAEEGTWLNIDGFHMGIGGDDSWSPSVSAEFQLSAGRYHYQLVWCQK

Tumor necrosis factor = Tumor necrosis factor (Homo sapiens, UniProt P01375); experiment: TNFa-triggered NF-kB activation inhibitors, SAR follow-up, cell-based, revised (AID 2337); type: functional
Chain of Tumor necrosis factor (P01375 whole entry): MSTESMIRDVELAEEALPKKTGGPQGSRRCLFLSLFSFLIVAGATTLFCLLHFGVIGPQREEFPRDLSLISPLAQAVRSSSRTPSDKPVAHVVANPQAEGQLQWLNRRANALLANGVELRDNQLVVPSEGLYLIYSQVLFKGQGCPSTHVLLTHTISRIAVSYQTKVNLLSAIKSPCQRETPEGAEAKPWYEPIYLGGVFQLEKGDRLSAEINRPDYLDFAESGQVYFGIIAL

[9] = molecular target: G-protein coupled receptor 35 (Homo sapiens, UniProt Q9HC97); experiment: GPR35 antagonists blocking zaprinast-driven arrestin recruitment, primary screen, imaging, U2OS, beta-arrestin-GFP, zaprinast agonist (AID 2058); type: functional;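 further: antagonist potency meaning inhibition of agonist-induced arrestin redistribution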
Chain of G-protein coupled receptor 35 (Q9HC97 whole entry): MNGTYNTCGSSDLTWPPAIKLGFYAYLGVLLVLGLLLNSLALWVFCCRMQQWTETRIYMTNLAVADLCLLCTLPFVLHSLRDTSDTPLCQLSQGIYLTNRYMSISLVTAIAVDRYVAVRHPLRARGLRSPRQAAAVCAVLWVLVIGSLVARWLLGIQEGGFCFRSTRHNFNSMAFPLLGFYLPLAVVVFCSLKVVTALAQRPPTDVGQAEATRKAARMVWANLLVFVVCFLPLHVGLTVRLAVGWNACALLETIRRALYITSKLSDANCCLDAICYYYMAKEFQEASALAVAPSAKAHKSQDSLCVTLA

[10] = molecular target: T3, Runt-related transcription factor 1/Core-binding factor subunit beta (Homo sapiens, UniProt Q01196+Q13951); experiment: inhibitors of RUNX1 Runt–CBFb-SMMHC binding, biochemical, TR-FRET (AID 1438); type: protein assay
T3 sequence (Q01196 whole entry, the tested form may be a part): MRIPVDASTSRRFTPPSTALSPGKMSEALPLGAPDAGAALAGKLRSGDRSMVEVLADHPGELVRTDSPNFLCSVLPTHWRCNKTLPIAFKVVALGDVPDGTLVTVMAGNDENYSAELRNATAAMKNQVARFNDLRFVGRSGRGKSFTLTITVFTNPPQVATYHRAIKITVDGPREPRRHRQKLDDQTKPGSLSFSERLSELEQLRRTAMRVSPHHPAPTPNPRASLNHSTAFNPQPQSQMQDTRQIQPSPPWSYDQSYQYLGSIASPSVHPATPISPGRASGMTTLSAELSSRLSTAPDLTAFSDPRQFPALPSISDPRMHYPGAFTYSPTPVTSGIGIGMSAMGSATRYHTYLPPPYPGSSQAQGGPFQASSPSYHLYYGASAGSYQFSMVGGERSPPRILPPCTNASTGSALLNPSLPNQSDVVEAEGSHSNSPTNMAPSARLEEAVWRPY
T3 sequence (Q13951 whole entry, the tested form may be a part): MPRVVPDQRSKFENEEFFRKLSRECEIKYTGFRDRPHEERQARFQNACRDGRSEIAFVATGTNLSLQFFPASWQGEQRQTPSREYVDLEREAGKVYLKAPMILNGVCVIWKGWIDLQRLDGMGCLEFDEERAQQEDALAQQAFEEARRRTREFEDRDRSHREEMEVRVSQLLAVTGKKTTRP

[11] = molecular target: T2, Nucleotide-binding oligomerization domain-containing protein 2; experiment: NOD2 signaling inhibitors, cell-based, luminescence, uHTS, HEK293 (AID 1566); type: functional
HEK293 [12] = experiment: NOD2 signaling inhibitors in MDP-stimulated cells, cell-based, uHTS, luminescence (AID 2001); type: functional; details: Homo sapiens
[13] = molecular target: T3, Runt-related transcription factor 1/Core-binding factor subunit beta; experiment: inhibitors of RUNX1 Runt–CBFb-SMMHC binding, primary screen, biochemical, FRET, Cerulean-Runt, Venus-CBFb-SMMHC, uHTS (AID 1434); type: protein assay;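 further: partner is the CBFb-SMMHC leukemia fusion protein rather than wild-type CBFb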
HEK293 [14] = experiment: cells; details: Homo sapiens
Hexokinase HKDC1 = molecular target: T4, Hexokinase HKDC1 (Homo sapiens, UniProt Q2TB90); experiment: HKDC1 hexokinase inhibitors, dose response, biochemical, W721R variant (AID 504729); type: functional
T4 sequence (Q2TB90 whole entry): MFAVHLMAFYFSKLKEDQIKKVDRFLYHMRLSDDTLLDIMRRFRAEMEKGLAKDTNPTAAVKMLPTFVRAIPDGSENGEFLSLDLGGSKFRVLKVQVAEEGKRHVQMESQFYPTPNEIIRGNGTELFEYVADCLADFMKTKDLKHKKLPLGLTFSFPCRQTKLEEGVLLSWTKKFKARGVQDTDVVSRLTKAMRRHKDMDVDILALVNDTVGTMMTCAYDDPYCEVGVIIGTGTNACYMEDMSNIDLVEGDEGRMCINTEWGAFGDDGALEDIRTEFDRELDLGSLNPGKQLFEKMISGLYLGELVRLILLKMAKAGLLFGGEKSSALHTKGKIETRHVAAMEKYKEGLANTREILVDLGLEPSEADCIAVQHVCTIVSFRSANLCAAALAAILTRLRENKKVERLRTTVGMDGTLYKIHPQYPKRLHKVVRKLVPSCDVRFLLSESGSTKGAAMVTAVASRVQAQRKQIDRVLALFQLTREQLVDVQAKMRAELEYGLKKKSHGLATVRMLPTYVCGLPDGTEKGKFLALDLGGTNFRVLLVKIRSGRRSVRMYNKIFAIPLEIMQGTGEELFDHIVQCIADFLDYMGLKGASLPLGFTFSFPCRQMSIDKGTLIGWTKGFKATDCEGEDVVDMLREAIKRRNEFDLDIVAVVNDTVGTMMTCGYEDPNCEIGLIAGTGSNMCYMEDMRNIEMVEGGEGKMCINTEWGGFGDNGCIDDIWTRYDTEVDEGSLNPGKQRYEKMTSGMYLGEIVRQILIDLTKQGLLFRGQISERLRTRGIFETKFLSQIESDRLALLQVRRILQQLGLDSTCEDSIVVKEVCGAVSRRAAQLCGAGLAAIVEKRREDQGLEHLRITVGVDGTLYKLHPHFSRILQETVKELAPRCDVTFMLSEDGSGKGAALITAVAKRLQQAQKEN

[15] = inhibitors of firefly luciferase expression or activity, dose response, H4 neuroglioma cells, luminescence (AID 1990); type: functional, cell-based
[16] = molecular target: Sphingosine 1-phosphate receptor 4 (Homo sapiens, UniProt O95977); experiment: Late-stage fluorescence dose response cell-based assay to identify agonists of the Sphingosine 1-Phosphate Receptor 4 (S1P4): purchased compounds EC50. [Related pubchem assays (depositor defined):AID1509, AID1523, AID1563, AID1686, AID1701, AID1801]; type: functional
Chain of Sphingosine 1-phosphate receptor 4 (O95977 whole entry): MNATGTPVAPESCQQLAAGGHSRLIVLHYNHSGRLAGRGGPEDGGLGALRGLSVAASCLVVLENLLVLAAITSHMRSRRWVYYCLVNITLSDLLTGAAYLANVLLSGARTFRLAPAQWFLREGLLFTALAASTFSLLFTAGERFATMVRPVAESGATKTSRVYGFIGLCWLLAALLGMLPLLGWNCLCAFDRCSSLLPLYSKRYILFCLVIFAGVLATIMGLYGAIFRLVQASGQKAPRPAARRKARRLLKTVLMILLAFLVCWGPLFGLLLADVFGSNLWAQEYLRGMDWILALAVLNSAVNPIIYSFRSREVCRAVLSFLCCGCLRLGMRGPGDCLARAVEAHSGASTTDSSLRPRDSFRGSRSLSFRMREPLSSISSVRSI

[17] = Luminescence Cell-Based Dose Response HTS to Identify Inhibitors of 5'UTR Stem-Loop Driven Prion Protein mRNA Translation in H4 Neuroglioblastoma Cells. [Related pubchem assays: 1827 (Project Summary), 1813 (Primary HTS)]; type: functional
[18] = inhibitors of SNCA 5'UTR-driven reporter translation, confirmation, H4 neuroglioma cells, luminescence (AID 1988); type: functional, cell-based
[19] = molecular target: Type-1 angiotensin II receptor (Homo sapiens, UniProt P30556); experiment: AT1 receptor agonists, dose response, selectivity assay for APJ receptor agonist project, cell-based, uHTS hits (AID 488865); type: functional;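 further: beta-arrestin recruitment to AT1 measured by enzyme fragment complementation luminescence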
Chain of Type-1 angiotensin II receptor (P30556 whole entry, the tested form may be a part): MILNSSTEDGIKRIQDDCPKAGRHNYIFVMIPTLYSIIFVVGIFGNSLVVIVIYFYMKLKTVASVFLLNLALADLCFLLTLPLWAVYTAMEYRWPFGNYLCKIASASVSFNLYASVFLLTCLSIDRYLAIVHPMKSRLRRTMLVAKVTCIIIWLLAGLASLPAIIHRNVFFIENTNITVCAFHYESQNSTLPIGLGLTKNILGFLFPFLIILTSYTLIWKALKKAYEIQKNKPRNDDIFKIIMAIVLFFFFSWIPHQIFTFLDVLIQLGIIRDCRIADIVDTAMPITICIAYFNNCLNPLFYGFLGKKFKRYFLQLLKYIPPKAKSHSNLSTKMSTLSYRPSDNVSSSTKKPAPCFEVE

CAAX prenyl protease 2 = molecular target: T5, CAAX prenyl protease 2 (Saccharomyces cerevisiae S288c, UniProt Q03530); type: biochemical
T5 sequence (Q03530 whole entry): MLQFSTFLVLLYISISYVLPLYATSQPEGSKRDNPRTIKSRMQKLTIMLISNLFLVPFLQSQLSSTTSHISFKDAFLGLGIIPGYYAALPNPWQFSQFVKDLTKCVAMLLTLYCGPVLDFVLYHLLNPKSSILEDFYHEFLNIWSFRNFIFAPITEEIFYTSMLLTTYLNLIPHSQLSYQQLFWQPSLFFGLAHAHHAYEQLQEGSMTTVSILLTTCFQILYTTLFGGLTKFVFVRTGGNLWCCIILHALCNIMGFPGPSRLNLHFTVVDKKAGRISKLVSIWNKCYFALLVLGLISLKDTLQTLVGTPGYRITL

Trypsin = Trypsin (Sus scrofa, UniProt P00761); experiment: porcine trypsin inhibitors, dose response, selectivity assay for Rce1 protease inhibitor project, biochemical, quenched peptide fluorescence, cherry-pick (AID 488789)
Chain of Trypsin (P00761 whole entry): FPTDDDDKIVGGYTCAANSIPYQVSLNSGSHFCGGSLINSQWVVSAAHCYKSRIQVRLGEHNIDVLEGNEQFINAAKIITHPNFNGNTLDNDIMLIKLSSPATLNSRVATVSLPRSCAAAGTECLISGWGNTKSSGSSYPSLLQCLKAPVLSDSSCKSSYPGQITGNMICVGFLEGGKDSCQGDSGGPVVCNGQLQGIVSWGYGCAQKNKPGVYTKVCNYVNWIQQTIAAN

BJ [20] = experiment: cytotoxicity toward BJ-TERT-LT-ST fibroblasts, dose response, cell-based, RAS-independent, luminescence (AID 1935); type: functional; details: Homo sapiens;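 further: BJ fibroblasts immortalized with TERT plus LT and ST oncogenes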
[21] = Luminescence Cell-Based Dose Retest to Confirm Activators of 5'UTR Stem-Loop Driven Alpha-Synuclein mRNA Translation in H4 Neuroglioblastoma Cells. [Related pubchem assays (depositor defined):AID1813, AID1829]; type: functional
[22] = Luminescence Cell-Based Dose HTS Response to Identify Inhibitors of 5'UTR Stem-Loop Driven Prion Protein mRNA Translation in H4-C Neuroglioblastoma Cells. [Related pubchem assays (depositor defined):AID1814, AID1827]; type: functional
[23] = Luminescence Cell-Based Dose Response HTS to Identify Activators of 5'UTR Stem-Loop Driven Prion Protein mRNA Translation in H4-C Neuroglioblastoma Cells. [Related pubchem assays: 1829 (Project Summary), 1814 (Primary HTS)]; type: functional
[24] = Luminescence Cell-Based Dose Response HTS to Identify Inhibitors of Luciferase Translation or Activity in H4-C Neuroglioblastoma Cells. [Related pubchem assays: 1813 (Primary HTS), 1827 (Project Summary)]; type: functional
[25] = Luminescence Cell-Based Dose Confirmation HTS to Identify Inhibitors of 5'UTR Stem-Loop Driven Alpha-Synuclein mRNA Translation in H4 Neuroglioblastoma Cells. [Related pubchem assays: 1827 (Project Summary), 1813 (Primary HTS)]; type: functional
[26] = cytotoxicity toward DRD oncogenic fibroblasts, dose response, cell-based, non-viral oncogenic, luminescence (AID 1934); type: functional; details: Homo sapiens
BJ [27] = experiment: cytotoxicity toward BJ-TERT fibroblasts, dose response, cell-based, RAS-independent, luminescence (AID 1933); type: functional; details: Homo sapiens
[28] = Luminescence Cell-Based Dose Response HTS to Identify Activators of Luciferase Translation or Activity in H4-C Neuroglioblastoma Cells. [Related pubchem assays: 1829 (Project Summary), 1814 (Primary HTS)]; type: functional
BJ [29] = experiment: cells; type: functional, cell-based; details: Homo sapiens

Chain of Coagulation factor XII (P00748 20-372 limits assumed): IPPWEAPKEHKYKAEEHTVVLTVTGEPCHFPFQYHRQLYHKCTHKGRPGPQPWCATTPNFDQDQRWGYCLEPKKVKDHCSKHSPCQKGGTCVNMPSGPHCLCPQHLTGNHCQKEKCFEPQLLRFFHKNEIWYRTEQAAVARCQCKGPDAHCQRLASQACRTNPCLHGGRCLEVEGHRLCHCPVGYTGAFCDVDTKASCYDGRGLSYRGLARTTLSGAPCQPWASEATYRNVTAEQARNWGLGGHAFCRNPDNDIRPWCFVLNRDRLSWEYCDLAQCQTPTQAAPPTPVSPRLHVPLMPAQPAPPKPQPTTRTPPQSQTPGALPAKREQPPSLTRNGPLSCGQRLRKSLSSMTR
Chain of Coagulation factor XII (P00748 373-615 limits assumed): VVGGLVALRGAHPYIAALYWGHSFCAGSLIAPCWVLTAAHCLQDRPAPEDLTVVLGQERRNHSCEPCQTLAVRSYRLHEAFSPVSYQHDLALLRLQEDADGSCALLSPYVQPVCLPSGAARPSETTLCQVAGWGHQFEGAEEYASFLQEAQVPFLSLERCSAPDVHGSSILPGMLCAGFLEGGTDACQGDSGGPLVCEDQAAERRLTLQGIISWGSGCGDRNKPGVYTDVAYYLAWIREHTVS

## COc1cc(OC)c2c(N)c(C#N)c(C(F)(F)C(F)(F)F)nc2c1
Coagulation factor XII
  IC50: > 50 µM (inactive)

## CCOC(=O)C1=C(Cc2ccc(Cl)cc2)C(=O)c2ccccc2C1=O
[1]
  AC50: 27.2 µM (active)
HEK293 [2]
  IC50: > 20 µM (inactive)
HEK293 [3]
  IC50: > 20 µM (inactive)
HEK293 [4]
  IC50: > 20 µM (inactive)
HEK293 [5]
  EC50: 12.2 µM (active)
[6]
  IC50: 5.78 µM (active)
[7]
  CC50: 19.4 µM (active)
[8]
  IC50: 7.01 µM (active)
Beta-galactosidase
  IC50: > 66.6 µM (inactive)
Tumor necrosis factor
  IC50: 6.24 µM (active)
[9]
  IC50: 4.3 µM (active)
[10]
  IC50: 43.6 µM (active)
[11]
  EC50: > 20 µM (inactive)
HEK293 [12]
  IC50: > 20 µM (inactive)
[13]
  IC50: > 100 µM (inactive)
HEK293 [14]
  IC50: > 20 µM (inactive)
Hexokinase HKDC1
  IC50: 12.2 µM (active)

## CCc1ccc(NC(=O)C(C)OC(=O)c2c(C)nn(Cc3ccccc3)c2Cl)cc1 (stereo not drawn)
[15]
  EC50: 16.4 µM (active)
[16]
  EC50: > 50 µM (inactive)
[17]
  EC50: > 120 µM (not active)
[18]
  EC50: > 120 µM (not active)

## CCC(C)NC(=O)CSC1=Nc2ccccc2C2=NC(CC(=O)NCc3ccc(F)cc3)C(=O)N12 (stereo not drawn)
[19]
  EC50: > 100 µM (inactive)
CAAX prenyl protease 2
  AC50: 15.8 µM (active)
Trypsin
  AC50: 16.1 µM (active)

## COc1ccc2c(c1)C(C)=CC(C)(C)N2S(=O)(=O)c1ccc(NC(C)=O)cc1
BJ [20]
  EC50: 7.05 µM (inconclusive)
[15]
  EC50: 14.4 µM (active)
[21]
  EC50: 11.6 µM (inconclusive)
[22]
  EC50: 1.69 µM (active)
[23]
  EC50: 1.69 µM (inconclusive)
[17]
  EC50: > 60 µM (not active)
[24]
  EC50: 2.91 µM (active)
[25]
  EC50: 11.6 µM (active)
[26]
  EC50: 1.06 µM (inconclusive)
BJ [27]
  EC50: 1.89 µM (inconclusive)
[28]
  EC50: 2.91 µM (inconclusive)
BJ [29]
  EC50: 5.92 µM (active)
[18]
  EC50: 0.514 µM (active)
